Ten compounds from patent US12594276B2, “Inhibitors of human immunodeficiency virus replication” (ViiV Healthcare UK (No.5) Limited, priority 2024, dated 2026) can be followed below.

Series [1] concerns recombinant NL4-3 virus (nef section replaced with Renilla luciferase gene) in MT-2 cells. The series can be described thus: HIV cell culture assay (antiviral activity, luciferase readout). Conditions: Renilla, NL43, MT-2 cells infected for 4-5 days with recombinant NL4-3 Renilla luciferase virus. The series is classed as cell-based. On the procedure: HIV cell culture assay—MT-2 cells, 293T cells and the proviral DNA clone of NL4-3 virus were obtained from the NIH AIDS Research and Reference Reagent Program. MT-2 cells were propagated in RPMI 1640 media supplemented with 10% heat inactivated fetal bovine serum (FBS), […]. The 293T cells were propagated in DMEM media supplemented with 10% heat inactivated FBS, […]. A recombinant NL4-3 proviral clone, in which a section of the nef gene was replaced with the Renilla luciferase gene, was used to make the reference virus used in these studies. The recombinant virus was prepared through transfection of the recombinant NL4-3 proviral clone into 293T cells using Transit-293 Transfection Reagent from Mirus Bio LLC (Madison, WI). Supernatant was harvested after 2-3 days and the amount of virus present was titered in MT-2 cells using luciferase enzyme activity as a marker by measuring luciferase enzyme activity. Luciferase was quantitated using the EnduRen Live Cell Substrate from Promega (Madison, WI). Antiviral activities of compounds toward the recombinant virus were quantified by measuring luciferase activity in MT-2 cells infected for 4-5 days with the recombinant virus in the presence of serial dilutions of the compound.
The 50% effective concentration (EC50) was calculated by using the exponential form of the median effect equation where (Fa)=1/[1+(ED50/drug conc.)m](Johnson V A, Byington R T. Infectivity Assay. In Techniques in HIV Research. ed. Aldovini A, Walker B D. 71-76. New York: Stockton Press. 1990). Curve fitting and analysis were performed with ActivityBase XE Runner software version 9.1.0.4 using model 203 (ID Business Solutions, LTD, Guildford, UK).

The nature of series [2]: Compound cytotoxicity, XTT-based colorimetric assay. Conditions: human. The series is classed as cell-based. On the procedure:
Compound cytotoxicity and the corresponding CC50 values were determined using the same protocol as described in the antiviral assay except that uninfected cells were used. Cytotoxicity was assessed on day 4 in uninfected MT2 cells by using an XTT (2,3-bis[2-Methoxy-4-nitro-5-sulfophenyl]-2H-tetrazolium-5-carboxyanilide inner salt)-based colorimetric assay (Sigma-Aldrich, St Louis, Mo).
For orientation: Tetrazolium assays rely on reduction of a dye to a coloured formazan, in cell work by metabolically active cells.

[3] abbreviates: uninfected MT2 cells, day 4, XTT, read-out: CC50.

pEC50: −log10 of the molar value. Where two headings read alike, the source gives them in different places.

Usually pEC50 stands for the negative decadic logarithm of the EC50, by convention in mol/L. For orientation: CC50 means the concentration that lowers cell viability or growth by half. As for `Cc1cc(C2CCC(F)(F)CC2)nc2nc([C@H](Cc3cc(F)cc(F)c3)NC(=O)Cn3nc(C4CC4)c4c3C[C@@H]3C[C@H]43)n(-c3ccc(Cl)c4c(NS(C)(=O)=O)nn(CCN5C[C@H](F)C[C@H](F)C5)c34)c(=O)c12` (atropisomer, axis not shown; (P)) [Example 1, N-[(1S)-1-[(3P)-3-(4-chloro-1-{2-[(3R,5S)-3,5-difluoropiperidin-1-yl]ethyl}-3-methanesulfonamido-1H-indazol-7-yl)-7-(4,4-difluorocyclohexyl)-5-methyl-4-oxo-3H,4H-pyrido[2,3-d]pyrimidin-2-yl]-2-(3,5-difluorophenyl)ethyl]-2-[(2S,4S)-9-cyclopropyl-7,8-diazatricyclo[4.3.0.0^2,^4]nona-1(6),8-dien-7-yl]acetamide], the pEC50 in series [1] is 11.05. The CC50 at 4 days in series [2] (setting [3]) is above 50 nM. The matching figures for `Cc1cc(C2CCC(F)(F)CC2)nc2nc([C@H](Cc3cc(F)cc(F)c3)NC(=O)Cn3nc(C4CC4)c4c3C[C@@H]3C[C@H]43)n(-c3ccc(Cl)c4c(NS(C)(=O)=O)nn(CCN5CCCC(F)(F)C5)c34)c(=O)c12` (atropisomer, axis not shown; (P)) [Example 2, N-[(1S)-1-[(3P)-3-{4-chloro-1-[2-(3,3-difluoropiperidin-1-yl)ethyl]-3-methanesulfonamido-1H-indazol-7-yl}-7-(4,4-difluorocyclohexyl)-5-methyl-4-oxo-3H,4H-pyrido[2,3-d]pyrimidin-2-yl]-2-(3,5-difluorophenyl)ethyl]-2-[(2S,4S)-9-cyclopropyl-7,8-diazatricyclo[4.3.0.0^2,^4]nona-1(6),8-dien-7-yl]acetamide]: 11.10 and above 50 nM. The matching figures for `Cc1cc(C2CCC(F)(F)CC2)nc2nc([C@H](Cc3cc(F)cc(F)c3)NC(=O)Cn3nc(C4CC4)c4c3C[C@@H]3C[C@H]43)n(-c3ccc(Cl)c4c(NS(C)(=O)=O)nn(CCN5CCCC(F)(F)CC5)c34)c(=O)c12` (atropisomer, axis not shown; (P)) [Example 3, N-[(1S)-1-[(3P)-3-{4-chloro-1-[2-(4,4-difluoroazepan-1-yl)ethyl]-3-methanesulfonamido-1H-indazol-7-yl}-7-(4,4-difluorocyclohexyl)-5-methyl-4-oxo-3H,4H-pyrido[2,3-d]pyrimidin-2-yl]-2-(3,5-difluorophenyl)ethyl]-2-[(2S,4S)-9-cyclopropyl-7,8-diazatricyclo[4.3.0.0^2,^4]nona-1(6),8-dien-7-yl]acetamide]: 11.05 and above 50 nM.

Regarding `Cc1cc(C2CCC(F)(F)CC2)nc2nc([C@H](Cc3cc(F)cc(F)c3)NC(=O)Cn3nc(C4CC4)c4c3C[C@@H]3C[C@H]43)n(-c3ccc(Cl)c4c(NS(C)(=O)=O)nn(CCN5C[C@H]6CC[C@@H](C5)O6)c34)c(=O)c12` (atropisomer, axis not shown; (P)) [Example 4, N-[(1S)-1-[(3P)-3-(4-chloro-3-methanesulfonamido-1-{2-[(1R,5S)-8-oxa-3-azabicyclo[3.2.1]octan-3-yl]ethyl}-1H-indazol-7-yl)-7-(4,4-difluorocyclohexyl)-5-methyl-4-oxo-3H,4H-pyrido[2,3-d]pyrimidin-2-yl]-2-(3,5-difluorophenyl)ethyl]-2-[(2S,4S)-9-cyclopropyl-7,8-diazatricyclo[4.3.0.0^2,^4]nona-1(6),8-dien-7-yl]acetamide], the pEC50 in series [1] is 11.15. Further, the CC50 at 4 days in series [2] (setting [3]) was above 50 nM.

As to `Cc1cc(C2CCC(F)(F)CC2)nc2nc([C@H](Cc3cc(F)cc(F)c3)NC(=O)Cn3nc(C(F)F)c4c3C(F)(F)[C@@H]3C[C@H]43)n(-c3ccc(Cl)c4c(NS(C)(=O)=O)nn(CCN5C[C@H](F)C[C@H](F)C5)c34)c(=O)c12` (atropisomer, axis not shown; (P)) [Example 5, N-[(1S)-1-[(3P)-3-(4-chloro-1-{2-[(3R,5S)-3,5-difluoropiperidin-1-yl]ethyl}-3-methanesulfonamido-1H-indazol-7-yl)-7-(4,4-difluorocyclohexyl)-5-methyl-4-oxo-3H,4H-pyrido[2,3-d]pyrimidin-2-yl]-2-(3,5-difluorophenyl)ethyl]-2-[(2S,4R)-9-(difluoromethyl)-5,5-difluoro-7,8-diazatricyclo[4.3.0.0^2,4]nona-1(6),8-dien-7-yl]acetamide], in series [1], the pEC50 was 11.05. Also, in series [2] (setting [3]), the CC50 at 4 days is above 20000 nM.

For the compound `Cc1cc(C2CCC(F)(F)CC2)nc2nc([C@H](Cc3cc(F)cc(F)c3)NC(=O)Cn3nc(C4CC4)c4c3C[C@@H]3C[C@H]43)n(-c3ccc(Cl)c4c(NS(C)(=O)=O)nn(CCN5[C@@H]6CC[C@H]5COC6)c34)c(=O)c12` (atropisomer, axis not shown; (P)) [Example 6, N-[(1S)-1-[(3P)-3-(4-chloro-3-methanesulfonamido-1-{2-[(1R,5S)-3-oxa-8-azabicyclo[3.2.1]octan-8-yl]ethyl}-1H-indazol-7-yl)-7-(4,4-difluorocyclohexyl)-5-methyl-4-oxo-3H,4H-pyrido[2,3-d]pyrimidin-2-yl]-2-(3,5-difluorophenyl)ethyl]-2-[(2S,4S)-9-cyclopropyl-7,8-diazatricyclo[4.3.0.0^2,^4]nona-1(6),8-dien-7-yl]acetamide], the pEC50 in series [1] is 11.22. Also, in series [2], the CC50 at 4 days was above 50 nM. The matching figures for `Cc1cc(C2CCC(F)(F)CC2)nc2nc([C@H](Cc3cc(F)cc(F)c3)NC(=O)Cn3nc(C4CC4)c4c3C[C@@H]3C[C@H]43)n(-c3ccc(Cl)c4c(NS(C)(=O)=O)nn(CCN5C[C@H]6C[C@@H](C5)O6)c34)c(=O)c12` (atropisomer, axis not shown; (P)) [Example 7, N-[(1S)-1-[(3P)-3-(4-chloro-3-methanesulfonamido-1-{2-[(1R,5S)-6-oxa-3-azabicyclo[3.1.1]heptan-3-yl]ethyl}-1H-indazol-7-yl)-7-(4,4-difluorocyclohexyl)-5-methyl-4-oxo-3H,4H-pyrido[2,3-d]pyrimidin-2-yl]-2-(3,5-difluorophenyl)ethyl]-2-[(2S,4S)-9-cyclopropyl-7,8-diazatricyclo[4.3.0.0^2,^4]nona-1(6),8-dien-7-yl]acetamide]: 11.05 and above 50 nM. As for `Cc1cc(C2(F)CCC(F)(F)CC2)nc2nc([C@H](Cc3cc(F)cc(F)c3)NC(=O)Cn3nc(C(F)F)c4c3C(F)(F)[C@@H]3C[C@H]43)n(-c3ccc(Cl)c4c(NS(C)(=O)=O)nn([C@H](C)C(=O)N5C[C@H](F)C[C@H](F)C5)c34)c(=O)c12` (atropisomer, axis not shown; (P)) [Example 755, N-[(1S)-1-[(3P)-3-{4-chloro-1-[(2R)-1-[(3R,5S)-3,5-difluoropiperidin-1-yl]-1-oxopropan-2-yl]-3-methanesulfonamido-1H-indazol-7-yl}-5-methyl-4-oxo-7-(1,4,4-trifluorocyclohexyl)-3H,4H-pyrido[2,3-d]pyrimidin-2-yl]-2-(3,5-difluorophenyl)ethyl]-2-[(2S,4R)-9-(difluoromethyl)-5,5-difluoro-7,8-diazatricyclo[4.3.0.0^2,^4]nona-1(6),8-dien-7-yl]acetamide], the pEC50 in series [1] was 10.57.

Turning to `Cc1cc(C2CCC(F)(F)CC2)nc2nc([C@H](Cc3cc(F)cc(F)c3)NC(=O)Cn3nc(C4CC4)c4c3C[C@@H]3C[C@H]43)n(-c3ccc(Cl)c4c(NS(C)(=O)=O)nn(C[C@@H](C)N5CC(C)(C)OC(C)(C)C5)c34)c(=O)c12` (relative stereo) [Example 706, N-[(1S)-1-[(3P)-3-{4-chloro-3-methanesulfonamido-1-[(2R)-2-(2,2,6,6-tetramethylmorpholin-4-yl)propyl]-1H-indazol-7-yl}-7-(4,4-difluorocyclohexyl)-5-methyl-4-oxo-3H,4H-pyrido[2,3-d]pyrimidin-2-yl]-2-(3,5-difluorophenyl)ethyl]-2-[(2R*,4R*)-9-cyclopropyl-7,8-diazatricyclo[4.3.0.0^2,^4]nona-1(6),8-dien-7-yl]acetamide], the pEC50 in series [1] was 10.82. Same read-out and setting: the value for `Cc1cc(C2(F)CCC(F)(F)CC2)nc2nc([C@H](Cc3cc(F)cc(F)c3)NC(=O)Cn3nc(C4CC4)c4c3C[C@@H]3C[C@H]43)n(-c3ccc(Cl)c4c(NS(C)(=O)=O)nn([C@H](C)C(=O)N5C[C@H](F)C[C@H](F)C5)c34)c(=O)c12` (relative stereo) [Example 756, N-[(1S)-1-[(3P)-3-{4-chloro-1-[(2R)-1-[(3R,5S)-3,5-difluoropiperidin-1-yl]-1-oxopropan-2-yl]-3-methanesulfonamido-1H-indazol-7-yl}-5-methyl-4-oxo-7-(1,4,4-trifluorocyclohexyl)-3H,4H-pyrido[2,3-d]pyrimidin-2-yl]-2-(3,5-difluorophenyl)ethyl]-2-[(2R*,4R*)-9-cyclopropyl-7,8-diazatricyclo[4.3.0.0^2,^4]nona-1(6),8-dien-7-yl]acetamide] was 10.43.
